# Measured values from the NIST ThermoML archive (doi:10.1016/j.jct.2012.06.012).
# ± gives the expanded uncertainty stated by the source.
# Assay: xn = mol fraction of the nth substance listed
# Conditions: Liquid, Vibrating tube method
smiles,measurement,setting,value
CCCCCCCCCC [decane] + CCO,mass density,"342.86 K, 16000 kPa, x2 = 0.7526",727.54 ± 0.4 kg/m3
same,mass density,"342.86 K, 16000 kPa, x2 = 0.9014",742.82 ± 0.38 kg/m3
same,mass density,"342.86 K, 17000 kPa, x2 = 0.7526",728.5 ± 0.42 kg/m3
same,mass density,"342.86 K, 17000 kPa, x2 = 0.9014",743.79 ± 0.4 kg/m3
same,mass density,"342.86 K, 18000 kPa, x2 = 0.7526",729.43 ± 0.43 kg/m3
same,mass density,"342.86 K, 18000 kPa, x2 = 0.9014",744.74 ± 0.41 kg/m3
same,mass density,"342.86 K, 19000 kPa, x2 = 0.7526",730.35 ± 0.44 kg/m3
same,mass density,"342.86 K, 19000 kPa, x2 = 0.9014",745.67 ± 0.42 kg/m3
same,mass density,"342.86 K, 20000 kPa, x2 = 0.7526",731.26 ± 0.45 kg/m3
same,mass density,"342.86 K, 20000 kPa, x2 = 0.9014",746.59 ± 0.43 kg/m3
same,mass density,"342.93 K, 1000 kPa, x2 = 0.2507",693.16 ± 0.22 kg/m3
same,mass density,"342.93 K, 2000 kPa, x2 = 0.2507",694.23 ± 0.24 kg/m3
same,mass density,"342.93 K, 3000 kPa, x2 = 0.2507",695.28 ± 0.25 kg/m3
same,mass density,"342.93 K, 4000 kPa, x2 = 0.2507",696.32 ± 0.27 kg/m3
same,mass density,"342.93 K, 5000 kPa, x2 = 0.2507",697.34 ± 0.28 kg/m3
same,mass density,"342.93 K, 6000 kPa, x2 = 0.2507",698.35 ± 0.3 kg/m3
same,mass density,"342.93 K, 7000 kPa, x2 = 0.2507",699.37 ± 0.31 kg/m3
same,mass density,"342.93 K, 8000 kPa, x2 = 0.2507",700.38 ± 0.32 kg/m3
same,mass density,"342.93 K, 9000 kPa, x2 = 0.2507",701.37 ± 0.34 kg/m3
same,mass density,"342.93 K, 10000 kPa, x2 = 0.2507",702.36 ± 0.35 kg/m3
same,mass density,"342.93 K, 11000 kPa, x2 = 0.2507",703.34 ± 0.36 kg/m3
same,mass density,"342.93 K, 12000 kPa, x2 = 0.2507",704.32 ± 0.38 kg/m3
same,mass density,"342.93 K, 13000 kPa, x2 = 0.2507",705.28 ± 0.39 kg/m3
same,mass density,"342.93 K, 14000 kPa, x2 = 0.2507",706.23 ± 0.41 kg/m3
same,mass density,"342.93 K, 15000 kPa, x2 = 0.2507",707.16 ± 0.42 kg/m3
same,mass density,"342.93 K, 16000 kPa, x2 = 0.2507",708.07 ± 0.43 kg/m3
same,mass density,"342.93 K, 17000 kPa, x2 = 0.2507",708.97 ± 0.45 kg/m3
same,mass density,"342.93 K, 18000 kPa, x2 = 0.2507",709.85 ± 0.46 kg/m3
same,mass density,"342.93 K, 19000 kPa, x2 = 0.2507",710.72 ± 0.47 kg/m3
same,mass density,"342.93 K, 20000 kPa, x2 = 0.2507",711.57 ± 0.48 kg/m3
same,mass density,"352.68 K, 1000 kPa, x2 = 0.9014",717.22 ± 0.21 kg/m3
same,mass density,"352.68 K, 2000 kPa, x2 = 0.9014",718.43 ± 0.22 kg/m3
same,mass density,"352.68 K, 3000 kPa, x2 = 0.9014",719.64 ± 0.24 kg/m3
same,mass density,"352.68 K, 4000 kPa, x2 = 0.9014",720.84 ± 0.25 kg/m3
same,mass density,"352.68 K, 5000 kPa, x2 = 0.9014",722.04 ± 0.26 kg/m3
same,mass density,"352.68 K, 6000 kPa, x2 = 0.9014",723.23 ± 0.27 kg/m3
same,mass density,"352.68 K, 7000 kPa, x2 = 0.9014",724.41 ± 0.29 kg/m3
same,mass density,"352.68 K, 8000 kPa, x2 = 0.9014",725.57 ± 0.3 kg/m3
same,mass density,"352.68 K, 9000 kPa, x2 = 0.9014",726.72 ± 0.31 kg/m3
same,mass density,"352.68 K, 10000 kPa, x2 = 0.9014",727.86 ± 0.32 kg/m3
same,mass density,"352.68 K, 11000 kPa, x2 = 0.9014",728.99 ± 0.34 kg/m3
same,mass density,"352.68 K, 12000 kPa, x2 = 0.9014",730.09 ± 0.35 kg/m3
same,mass density,"352.68 K, 13000 kPa, x2 = 0.9014",731.17 ± 0.36 kg/m3
same,mass density,"352.68 K, 14000 kPa, x2 = 0.9014",732.26 ± 0.37 kg/m3
same,mass density,"352.68 K, 15000 kPa, x2 = 0.9014",733.32 ± 0.38 kg/m3
same,mass density,"352.68 K, 16000 kPa, x2 = 0.9014",734.36 ± 0.4 kg/m3
same,mass density,"352.68 K, 17000 kPa, x2 = 0.9014",735.39 ± 0.41 kg/m3
same,mass density,"352.68 K, 18000 kPa, x2 = 0.9014",736.4 ± 0.42 kg/m3
same,mass density,"352.68 K, 19000 kPa, x2 = 0.9014",737.39 ± 0.43 kg/m3
same,mass density,"352.68 K, 20000 kPa, x2 = 0.9014",738.36 ± 0.44 kg/m3
same,mass density,"352.69 K, 1000 kPa, x2 = 0.0937",683.22 ± 0.23 kg/m3
same,mass density,"352.69 K, 1000 kPa, x2 = 0.4963",689.92 ± 0.23 kg/m3
same,mass density,"352.69 K, 2000 kPa, x2 = 0.0937",684.34 ± 0.25 kg/m3
same,mass density,"352.69 K, 2000 kPa, x2 = 0.4963",691.07 ± 0.24 kg/m3
same,mass density,"352.69 K, 3000 kPa, x2 = 0.0937",685.44 ± 0.26 kg/m3
same,mass density,"352.69 K, 3000 kPa, x2 = 0.4963",692.22 ± 0.25 kg/m3
same,mass density,"352.69 K, 4000 kPa, x2 = 0.0937",686.53 ± 0.27 kg/m3
same,mass density,"352.69 K, 4000 kPa, x2 = 0.4963",693.37 ± 0.27 kg/m3
same,mass density,"352.69 K, 5000 kPa, x2 = 0.0937",687.61 ± 0.29 kg/m3
same,mass density,"352.69 K, 5000 kPa, x2 = 0.4963",694.5 ± 0.28 kg/m3
same,mass density,"352.69 K, 6000 kPa, x2 = 0.0937",688.68 ± 0.3 kg/m3
same,mass density,"352.69 K, 6000 kPa, x2 = 0.4963",695.63 ± 0.3 kg/m3
same,mass density,"352.69 K, 7000 kPa, x2 = 0.0937",689.74 ± 0.32 kg/m3
same,mass density,"352.69 K, 7000 kPa, x2 = 0.4963",696.75 ± 0.31 kg/m3
same,mass density,"352.69 K, 8000 kPa, x2 = 0.0937",690.8 ± 0.33 kg/m3
same,mass density,"352.69 K, 8000 kPa, x2 = 0.4963",697.86 ± 0.32 kg/m3
same,mass density,"352.69 K, 9000 kPa, x2 = 0.0937",691.83 ± 0.35 kg/m3
same,mass density,"352.69 K, 9000 kPa, x2 = 0.4963",698.96 ± 0.34 kg/m3
same,mass density,"352.69 K, 10000 kPa, x2 = 0.0937",692.86 ± 0.36 kg/m3
same,mass density,"352.69 K, 10000 kPa, x2 = 0.4963",700.06 ± 0.35 kg/m3
same,mass density,"352.69 K, 11000 kPa, x2 = 0.0937",693.89 ± 0.37 kg/m3
same,mass density,"352.69 K, 11000 kPa, x2 = 0.4963",701.13 ± 0.37 kg/m3
same,mass density,"352.69 K, 12000 kPa, x2 = 0.0937",694.89 ± 0.39 kg/m3
same,mass density,"352.69 K, 12000 kPa, x2 = 0.4963",702.2 ± 0.38 kg/m3
same,mass density,"352.69 K, 13000 kPa, x2 = 0.0937",695.89 ± 0.4 kg/m3
same,mass density,"352.69 K, 13000 kPa, x2 = 0.4963",703.25 ± 0.39 kg/m3
same,mass density,"352.69 K, 14000 kPa, x2 = 0.0937",696.87 ± 0.42 kg/m3
same,mass density,"352.69 K, 14000 kPa, x2 = 0.4963",704.28 ± 0.41 kg/m3
same,mass density,"352.69 K, 15000 kPa, x2 = 0.0937",697.83 ± 0.43 kg/m3
same,mass density,"352.69 K, 15000 kPa, x2 = 0.4963",705.29 ± 0.42 kg/m3
same,mass density,"352.69 K, 16000 kPa, x2 = 0.0937",698.77 ± 0.44 kg/m3
same,mass density,"352.69 K, 16000 kPa, x2 = 0.4963",706.29 ± 0.43 kg/m3
same,mass density,"352.69 K, 17000 kPa, x2 = 0.0937",699.71 ± 0.46 kg/m3
same,mass density,"352.69 K, 17000 kPa, x2 = 0.4963",707.26 ± 0.45 kg/m3
same,mass density,"352.69 K, 18000 kPa, x2 = 0.0937",700.63 ± 0.47 kg/m3
same,mass density,"352.69 K, 18000 kPa, x2 = 0.4963",708.23 ± 0.46 kg/m3
same,mass density,"352.69 K, 19000 kPa, x2 = 0.0937",701.52 ± 0.49 kg/m3
same,mass density,"352.69 K, 19000 kPa, x2 = 0.4963",709.17 ± 0.47 kg/m3
same,mass density,"352.69 K, 20000 kPa, x2 = 0.0937",702.39 ± 0.5 kg/m3
same,mass density,"352.69 K, 20000 kPa, x2 = 0.4963",710.11 ± 0.49 kg/m3
